Measured values taken from PubChem BioAssay AID1963838 (Molecular Pharmacology Branch, DTP, NCI, 2024).

System: 855422-203-R-J1-PDC complex spheroid viability
Experiment: Anticancer human tumor 855422-203-R-J1-PDC patient-derived bladder carcinoma cell line growth inhibition [POLQ]
Conditions: for IC50: curve of first compound; for viability, T/C: stronger effect = lower value
Outline: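 Patient-derived tumour cells were co-cultured with HUVEC and mesenchymal stem cells as multicellular spheroids at 37 °C. They were treated with POLQ inhibitors (novobiocin, ART-558, RP6685) alone or combined with other agents. Top concentrations were at or near clinical Cmax (otherwise 10 microM; SN-38 at 1 microM), decreasing in half-log steps.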

[1] = second compound 0.0316 µM, first compound 0.0316 µM
[2] = second compound 0.0316 µM, first compound 0.1 µM
[3] = second compound 0.1 µM, first compound 0.0316 µM
[4] = second compound 0.1 µM, first compound 0.1 µM
[5] = second compound 0.316 µM, first compound 0.0316 µM
[6] = second compound 0.316 µM, first compound 0.1 µM
[7] = second compound 1 µM, first compound 0.0316 µM
[8] = second compound 1 µM, first compound 0.1 µM
[9] = second compound 3.16 µM, first compound 0.0316 µM
[10] = second compound 3.16 µM, first compound 0.1 µM
[11] = second compound 10 µM, first compound 0.0316 µM
[12] = second compound 10 µM, first compound 0.1 µM
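Also: spheroids exposed to compounds for seven days before readout.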

CC(=O)O[C@H]1C(=O)[C@@]2(C)[C@H]([C@H](OC(=O)c3ccccc3)[C@]3(O)C[C@H](OC(=O)[C@H](O)[C@@H](NC(=O)c4ccccc4)c4ccccc4)C(C)=C1C3(C)C)[C@]1(OC(C)=O)CO[C@@H]1C[C@@H]2O + Cc1cccc(N(C)C(=O)C2C(O)CCN2c2nc(C)cc(C(F)(F)F)c2C#N)c1
IC50 (second compound 0.0316 µM): < 9.49 nM
IC50 (second compound 0.1 µM): < 9.49 nM
IC50 (second compound 0.316 µM): < 9.49 nM
IC50 (second compound 1 µM): < 9.49 nM
IC50 (second compound 3.16 µM): < 9.49 nM
IC50 (second compound 10 µM): < 9.49 nM
viability, T/C (second compound 0.0316 µM, first compound 0.00949 µM): 13.6%
viability, T/C (second compound 0.0316 µM, first compound 0.03 µM): 9.26%
viability, T/C (second compound 0.0316 µM, first compound 0.0949 µM): 11.7%
viability, T/C (second compound 0.0316 µM, first compound 0.3 µM): 9.48%
viability, T/C (second compound 0.0316 µM, first compound 0.949 µM): 11.1%
viability, T/C (second compound 0.0316 µM, first compound 3 µM): 12.6%
viability, T/C (second compound 0.1 µM, first compound 0.00949 µM): 16.4%
viability, T/C (second compound 0.1 µM, first compound 0.03 µM): 10.2%
viability, T/C (second compound 0.1 µM, first compound 0.0949 µM): 9.03%
viability, T/C (second compound 0.1 µM, first compound 0.3 µM): 7.34%
viability, T/C (second compound 0.1 µM, first compound 0.949 µM): 9.39%
viability, T/C (second compound 0.1 µM, first compound 3 µM): 8.97%
viability, T/C (second compound 0.316 µM, first compound 0.00949 µM): 11.8%
viability, T/C (second compound 0.316 µM, first compound 0.03 µM): 10.8%
viability, T/C (second compound 0.316 µM, first compound 0.0949 µM): 8.92%
viability, T/C (second compound 0.316 µM, first compound 0.3 µM): 9.41%
viability, T/C (second compound 0.316 µM, first compound 0.949 µM): 10.9%
viability, T/C (second compound 0.316 µM, first compound 3 µM): 9.92%
viability, T/C (second compound 1 µM, first compound 0.00949 µM): 9.84%
viability, T/C (second compound 1 µM, first compound 0.03 µM): 12%
viability, T/C (second compound 1 µM, first compound 0.0949 µM): 9.05%
viability, T/C (second compound 1 µM, first compound 0.3 µM): 9.65%
viability, T/C (second compound 1 µM, first compound 0.949 µM): 10.3%
viability, T/C (second compound 1 µM, first compound 3 µM): 10.7%
viability, T/C (second compound 3.16 µM, first compound 0.00949 µM): 11.4%
viability, T/C (second compound 3.16 µM, first compound 0.03 µM): 11.7%
viability, T/C (second compound 3.16 µM, first compound 0.0949 µM): 10.1%
viability, T/C (second compound 3.16 µM, first compound 0.3 µM): 10.2%
viability, T/C (second compound 3.16 µM, first compound 0.949 µM): 11.5%
viability, T/C (second compound 3.16 µM, first compound 3 µM): 10.8%
viability, T/C (second compound 10 µM, first compound 0.00949 µM): 13.1%
viability, T/C (second compound 10 µM, first compound 0.03 µM): 11.8%
viability, T/C (second compound 10 µM, first compound 0.0949 µM): 12.8%
viability, T/C (second compound 10 µM, first compound 0.3 µM): 10.9%
viability, T/C (second compound 10 µM, first compound 0.949 µM): 12%
viability, T/C (second compound 10 µM, first compound 3 µM): 11.9%

CC[C@@]1(O)C(=O)OCc2c1cc1n(c2=O)Cc2cc3c(CN(C)C)c(O)ccc3nc2-1 + Cc1cccc(N(C)C(=O)C2C(O)CCN2c2nc(C)cc(C(F)(F)F)c2C#N)c1
IC50 (second compound 0.0316 µM): 29.1 nM
IC50 (second compound 0.1 µM): 32.4 nM
IC50 (second compound 0.316 µM): 28 nM
IC50 (second compound 1 µM): 26.5 nM
IC50 (second compound 3.16 µM): 26.4 nM
IC50 (second compound 10 µM): 23.1 nM
viability, T/C (second compound 0.0316 µM, first compound 0.000316 µM): 102%
viability, T/C (second compound 0.0316 µM, first compound 0.001 µM): 97.4%
viability, T/C (second compound 0.0316 µM, first compound 0.00316 µM): 99.8%
viability, T/C (second compound 0.0316 µM, first compound 0.01 µM): 82.5%
viability, T/C [1]: 47.7%
viability, T/C [2]: 13.3%
viability, T/C (second compound 0.1 µM, first compound 0.000316 µM): 118%
viability, T/C (second compound 0.1 µM, first compound 0.001 µM): 104%
viability, T/C (second compound 0.1 µM, first compound 0.00316 µM): 99%
viability, T/C (second compound 0.1 µM, first compound 0.01 µM): 103%
viability, T/C [3]: 50.8%
viability, T/C [4]: 13.7%
viability, T/C (second compound 0.316 µM, first compound 0.000316 µM): 94.7%
viability, T/C (second compound 0.316 µM, first compound 0.001 µM): 105%
viability, T/C (second compound 0.316 µM, first compound 0.00316 µM): 97.5%
viability, T/C (second compound 0.316 µM, first compound 0.01 µM): 99.5%
viability, T/C [5]: 44.1%
viability, T/C [6]: 14.1%
viability, T/C (second compound 1 µM, first compound 0.000316 µM): 99.7%
viability, T/C (second compound 1 µM, first compound 0.001 µM): 96.4%
viability, T/C (second compound 1 µM, first compound 0.00316 µM): 116%
viability, T/C (second compound 1 µM, first compound 0.01 µM): 89.4%
viability, T/C [7]: 43%
viability, T/C [8]: 12.4%
viability, T/C (second compound 3.16 µM, first compound 0.000316 µM): 102%
viability, T/C (second compound 3.16 µM, first compound 0.001 µM): 100%
viability, T/C (second compound 3.16 µM, first compound 0.00316 µM): 113%
viability, T/C (second compound 3.16 µM, first compound 0.01 µM): 94.9%
viability, T/C [9]: 41.6%
viability, T/C [10]: 11.9%
viability, T/C (second compound 10 µM, first compound 0.000316 µM): 97.4%
viability, T/C (second compound 10 µM, first compound 0.001 µM): 97.7%
viability, T/C (second compound 10 µM, first compound 0.00316 µM): 107%
viability, T/C (second compound 10 µM, first compound 0.01 µM): 86.8%
viability, T/C [11]: 36%
viability, T/C [12]: 11.6%

COc1cc(C2c3cc4c(cc3C(OC3OC5COC(C)OC5C(O)C3O)C3COC(=O)C23)OCO4)cc(OC)c1O (stereo unspecified) + Cc1cccc(N(C)C(=O)C2C(O)CCN2c2nc(C)cc(C(F)(F)F)c2C#N)c1
IC50 (second compound 0.0316 µM): 229 nM
IC50 (second compound 0.1 µM): 222 nM
IC50 (second compound 0.316 µM): 205 nM
IC50 (second compound 1 µM): 189 nM
IC50 (second compound 3.16 µM): 180 nM
IC50 (second compound 10 µM): 137 nM
viability, T/C [1]: 102%
viability, T/C [2]: 102%
viability, T/C (second compound 0.0316 µM, first compound 0.316 µM): 30.1%
viability, T/C (second compound 0.0316 µM, first compound 1 µM): 11.4%
viability, T/C (second compound 0.0316 µM, first compound 3.16 µM): 7.61%
viability, T/C (second compound 0.0316 µM, first compound 10 µM): 4.64%
viability, T/C [3]: 98.4%
viability, T/C [4]: 98.4%
viability, T/C (second compound 0.1 µM, first compound 0.316 µM): 28.7%
viability, T/C (second compound 0.1 µM, first compound 1 µM): 12.5%
viability, T/C (second compound 0.1 µM, first compound 3.16 µM): 6.62%
viability, T/C (second compound 0.1 µM, first compound 10 µM): 4.51%
viability, T/C [5]: 111%
viability, T/C [6]: 89.8%
viability, T/C (second compound 0.316 µM, first compound 0.316 µM): 25.9%
viability, T/C (second compound 0.316 µM, first compound 1 µM): 11.4%
viability, T/C (second compound 0.316 µM, first compound 3.16 µM): 8.46%
viability, T/C (second compound 0.316 µM, first compound 10 µM): 4.61%
viability, T/C [7]: 113%
viability, T/C [8]: 80.2%
viability, T/C (second compound 1 µM, first compound 0.316 µM): 24.8%
viability, T/C (second compound 1 µM, first compound 1 µM): 11.8%
viability, T/C (second compound 1 µM, first compound 3.16 µM): 6.9%
viability, T/C (second compound 1 µM, first compound 10 µM): 5.16%
viability, T/C [9]: 97.7%
viability, T/C [10]: 77%
viability, T/C (second compound 3.16 µM, first compound 0.316 µM): 23.5%
viability, T/C (second compound 3.16 µM, first compound 1 µM): 12.4%
viability, T/C (second compound 3.16 µM, first compound 3.16 µM): 6.67%
viability, T/C (second compound 3.16 µM, first compound 10 µM): 4.34%
viability, T/C [11]: 97%
viability, T/C [12]: 60.9%
viability, T/C (second compound 10 µM, first compound 0.316 µM): 20.7%
viability, T/C (second compound 10 µM, first compound 1 µM): 13.5%
viability, T/C (second compound 10 µM, first compound 3.16 µM): 6.34%
viability, T/C (second compound 10 µM, first compound 10 µM): 4.46%
